Assay results published in patent publication US7807202B2, “Compositions for treatment of viral-induced skin lesions and methods of using same” (priority 2003, dated 2010).

Experiments:
common warts = assay: Case treatments of common warts on the hands by topical application (Examples 10-11); type: in vivo, human; settings: Example 11, child, 15%
From the text: A child presented with common verrucae on the dorsum of both hands involving the metacarpal-phalangeal joints for over 3 years. […] After 12 weeks, all warty lesions were gone. Twice a week the warts were gently scrubbed with a stiff nylon bristle brush before application of the tea tree oil emulsion to help remove the dead outer keratinized skin.
A child presented with common warts affecting the palms of both hands resistant to treatment. […] Twice weekly gentle scrubbing with a stiff nylon bristle brush before application of the emulsion to help remove the dead outer keratinized skin was performed.

Molluscum contagiosum = settings: in vivo; cited from earlier work

SMILES | outcome of earlier conventional treatment of common warts (common warts) | outcome of earlier conventional treatment of common warts (common warts; listed as salicylic acid) | effect on lesions caused by Molluscum contagiosum (Molluscum contagiosum)
O=C(O)c1ccccc1O [Salicyclic acid] | the warts multiplied and spread | failed to eradicate the viral lesions | –
Nc1nc2c(ncn2COCCO)c(=O)[nH]1 [acyclovir] | – | – | no effect
